Test [1] addresses T1, human TNFR1 extracellular domain (ECD) protein (Homo sapiens, UniProt P19438).
T1 construct: HRV 3C protease cleavage site (C); 6His (C, cleaved yes); made in house; host or cells: Sf21 insect cells (baculovirus), secreted
T1 sequence (P19438 30-211): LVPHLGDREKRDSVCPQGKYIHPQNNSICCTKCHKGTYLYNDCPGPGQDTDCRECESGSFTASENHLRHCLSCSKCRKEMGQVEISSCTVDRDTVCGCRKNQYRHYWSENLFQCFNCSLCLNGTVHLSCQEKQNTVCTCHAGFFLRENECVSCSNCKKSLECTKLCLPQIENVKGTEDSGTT
In words: SPR binding affinity to captured human TNFR1 ECD. An outline of the steps:
(§1)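 Peptide binding kinetics read by SPR in HEPES pH 7.4 running buffer with 2% DMSO, with TNFR2 ECD tested in parallel for off-target binding. Receptor ECDs, insect-cell expressed and biotinylated at C-terminal avi-tag, were captured via streptavidin. KA derived from association and dissociation rate constants.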

A further test addresses T2, human TNFR2 ECD protein (Homo sapiens, UniProt P20333).
T2 construct: HRV 3C protease cleavage site (C); 6His (C, cleaved yes); made in house; host or cells: Sf21 insect cells (baculovirus), secreted
T2 sequence (P20333 23-257): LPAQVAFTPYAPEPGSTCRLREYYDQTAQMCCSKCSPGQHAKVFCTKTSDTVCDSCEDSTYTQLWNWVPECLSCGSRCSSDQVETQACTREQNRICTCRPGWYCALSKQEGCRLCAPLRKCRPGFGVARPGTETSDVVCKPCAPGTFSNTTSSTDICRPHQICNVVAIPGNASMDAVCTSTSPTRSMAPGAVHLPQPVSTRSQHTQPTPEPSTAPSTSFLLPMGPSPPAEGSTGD
In words: SPR off-target binding (selectivity) to human TNFR2 ECD. An outline of the steps: as §1

Test [2] deals with T3, human soluble TNFR1 (sTNFR1) (Homo sapiens, UniProt P19438).
T3 construct: made in house; host or cells: Sf21 (baculovirus)
T3 sequence (P19438 with tags, fused parts or gaps): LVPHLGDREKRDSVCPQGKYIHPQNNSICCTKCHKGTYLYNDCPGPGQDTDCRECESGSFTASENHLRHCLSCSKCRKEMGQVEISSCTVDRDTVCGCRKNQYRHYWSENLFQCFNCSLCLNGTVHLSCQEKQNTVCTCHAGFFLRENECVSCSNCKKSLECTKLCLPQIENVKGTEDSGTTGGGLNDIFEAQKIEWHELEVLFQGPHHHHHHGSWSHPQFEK
Put plainly: Human sTNFR1-peptide displacement assay (LanthaScreen Eu TR-FRET binding assay). An outline of the steps: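 Readout is the 665/615 nm TR-FRET ratio (Eu anti-His donor, streptavidin-Alexa647 acceptor), normalized to DMSO and saturating displacer, fit by Morrison-based five-parameter logistic for Kd^app. His-tagged sTNFR1 (1-211) prebound to 100 nM biotinylated peptide SEQ ID NO.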

In test [3] the target is T4, TNFα-induced NF-κB signal transduction pathway (TNFR1 signaling) in THP-1 cells (Homo sapiens, UniProt P19438).
T4 sequence (P19438 30-455): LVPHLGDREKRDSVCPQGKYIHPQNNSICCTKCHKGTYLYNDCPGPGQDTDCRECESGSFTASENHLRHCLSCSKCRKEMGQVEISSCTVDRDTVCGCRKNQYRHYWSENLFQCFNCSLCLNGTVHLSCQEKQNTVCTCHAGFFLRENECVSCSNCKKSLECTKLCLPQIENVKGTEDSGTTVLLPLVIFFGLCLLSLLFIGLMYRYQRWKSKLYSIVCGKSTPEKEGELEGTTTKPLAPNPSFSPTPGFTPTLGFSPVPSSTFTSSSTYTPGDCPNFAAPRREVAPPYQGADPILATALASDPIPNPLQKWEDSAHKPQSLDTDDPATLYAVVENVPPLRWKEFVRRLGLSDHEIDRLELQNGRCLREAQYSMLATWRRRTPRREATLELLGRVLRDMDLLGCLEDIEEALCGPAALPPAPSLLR
Put plainly: THP-1 Lucia NF-κB reporter cell assay, inhibition of TNFα-induced NF-κB signaling. To be noted: THP-1 NF-κB Lucia reporter cells, 10 ng/mL TNFα, 16-18 h, secreted luciferase; read-out: THP-1 IC50. The format is cell-based. In outline:
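IC50 from a 4-parameter logistic fit of secreted luciferase luminescence (QUANTI-Luc), normalised to min/max controls. Reporter THP-1 cells were exposed to peptides for 1 h at 37 °C before 10 ng/mL TNFα (final) was added overnight (16–18 h).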

Structures are written as SMILES. Numbered stars: 1 amine (or outer) side, 2 acyl side, 3 side chain; on linkers, the order of the positions; unused ones are H or OH. Square brackets hold non-standard residues; d marks the D form. Peptide text beside a SMILES is read from it. Trp(βS-Me,7-OMe) = COc1cccc2c([C@H](C)[C@H](N)C(=O)O)c[nH]c12; X34 = O=C([C@H](Cc1c[nH]c2c(Cl)c(F)ccc12)N[*:1])[*:2]; Phe(4-NHCONH2) = NC(=O)Nc1ccc(C[C@H](N)C(=O)O)cc1; Trp(7-CN) = N#Cc1cccc2c(C[C@H](N)C(=O)O)c[nH]c12; Trp(7-Cl) = N[C@@H](Cc1c[nH]c2c(Cl)cccc12)C(=O)O; Phe(4-CONH2) = NC(=O)c1ccc(C[C@H](N)C(=O)O)cc1; Phe(4-COOH) = N[C@@H](Cc1ccc(C(=O)O)cc1)C(=O)O; 4Pal(3S-Me) = C[C@@H](c1ccncc1)[C@H](N)C(=O)O; Pip(5R-OH) = O=C(O)[C@@H]1CC[C@@H](O)CN1; X1 = O=C([C@@H]1CC[C@H](N[*:1])C1)[*:2]; Pip(4-aza) = O=C(O)[C@@H]1CNCCN1; 4Pal = N[C@@H](Cc1ccncc1)C(=O)O; NMeE = CN[C@@H](CCC(=O)O)C(=O)O; dHyp = O=C(O)[C@H]1C[C@H](O)CN1; Ahp(2) = CCCCC[C@H](N)C(=O)O; hLys = NCCCCC[C@H](N)C(=O)O; αMeS = C[C@](N)(CO)C(=O)O; Nle = CCCC[C@H](N)C(=O)O; Sar = CNCC(=O)O Some results are limits rather than exact numbers.

From US20240287138A1, “CYCLIC PEPTIDES FOR INHIBITING TNF RECEPTOR 1 ACTIVITY” (Merck Sharp & Dohme LLC, priority 2023, published 2024) come the findings set out here.

`CCCCC[C@@H]1NC(=O)[C@@H]2CC[C@@H](C2)NC(=O)[C@H]([C@@H](C)c2c[nH]c3c(OC)cccc23)NC(=O)CN(C)C(=O)[C@H](Cc2ccc(C(N)=O)cc2)NC(=O)[C@H](Cc2ccc(C(N)=O)cc2)NC(=O)[C@](C)(CO)NC(=O)[C@H](Cc2c[nH]c3c(C#N)cccc23)NC(=O)[C@H](Cc2ccc(C(=O)O)cc2)NC(=O)[C@H](CC(N)=O)NC(=O)[C@H]2C[C@H](O)CN2C(=O)[C@H](Cc2c[nH]c3ccccc23)NC(=O)[C@H](CC(N)=O)NC(=O)[C@H]([C@@H](C)c2ccncc2)NC1=O` [SEQ ID NO. 92] (cyclo([Ahp(2)][4Pal(3S-Me)]NW[dHyp]N[Phe(4-COOH)][Trp(7-CN)][αMeS][Phe(4-CONH2)][Phe(4-CONH2)][Sar][Trp(βS-Me,7-OMe)][X1])): the dissociation constant Kd in test [1] was 0.05 nM; on human TNFR2 ECD protein, more than 1000 nM; in test [2], 0.24 nM.
As to `CCCCC[C@@H]1NC(=O)[C@@H]2CC[C@@H](C2)NC(=O)[C@H]([C@@H](C)c2c[nH]c3c(OC)cccc23)NC(=O)CN(C)C(=O)[C@H](Cc2ccc(C(N)=O)cc2)NC(=O)[C@H](Cc2ccc(C(=O)O)cc2)NC(=O)[C@](C)(CO)NC(=O)[C@H](Cc2c[nH]c3c(Cl)c(F)ccc23)NC(=O)[C@H](Cc2ccncc2)NC(=O)[C@H](CC(N)=O)NC(=O)[C@H]2C[C@H](O)CN2C(=O)[C@H](Cc2c[nH]c3ccccc23)NC(=O)[C@@H]2CNCCN2C(=O)[C@H](Cc2ccncc2)NC1=O` [SEQ ID NO. 112] (cyclo([4Pal][Pip(4-aza)]W[dHyp]N[4Pal][X34][αMeS][Phe(4-COOH)][Phe(4-CONH2)][Sar][Trp(βS-Me,7-OMe)][X1][Ahp(2)])), the Kd is 0.03 nM in test [1], more than 1000 nM at human TNFR2 ECD protein and 0.24 nM in test [2].
In the case of `CCCC[C@@H]1NC(=O)[C@@H]2CC[C@@H](C2)NC(=O)[C@H]([C@@H](C)c2c[nH]c3c(OC)cccc23)NC(=O)CN(C)C(=O)[C@H](Cc2ccc(O)cc2)NC(=O)[C@H](Cc2ccc(NC(N)=O)cc2)NC(=O)[C@](C)(CO)NC(=O)[C@H](Cc2c[nH]c3c(Cl)cccc23)NC(=O)[C@H](Cc2ccncc2)NC(=O)[C@H](CC(N)=O)NC(=O)[C@H](CCC(=O)O)N(C)C(=O)[C@H](Cc2c[nH]c3ccccc23)NC(=O)[C@@H]2CNCCN2C(=O)[C@H](Cc2ccncc2)NC1=O` [SEQ ID NO. 127] (cyclo([4Pal][Trp(7-Cl)][αMeS][Phe(4-NHCONH2)]Y[Sar][Trp(βS-Me,7-OMe)][X1][Nle][4Pal][Pip(4-aza)]W[NMeE]N)), the dissociation constant (Kd) is 0.18 nM in test [1] and more than 1000 nM at human TNFR2 ECD protein. The concentration for half-maximal inhibition (IC50) in test [3] is 0.8 nM.
For `COc1cccc2c([C@H](C)[C@@H]3NC(=O)CN(C)C(=O)[C@H](Cc4ccc(O)cc4)NC(=O)[C@H](Cc4ccc(C(=O)O)cc4)NC(=O)[C@](C)(CO)NC(=O)[C@H](Cc4c[nH]c5c(Cl)cccc45)NC(=O)[C@H](Cc4ccncc4)NC(=O)[C@H](CC(N)=O)NC(=O)[C@H](CCC(=O)O)N(C)C(=O)[C@H](Cc4c[nH]c5ccccc45)NC(=O)[C@@H]4CC[C@@H](O)CN4C(=O)[C@H](Cc4ccncc4)NC(=O)[C@H](CCCCCN)NC(=O)[C@@H]4CC[C@@H](C4)NC3=O)c[nH]c12` [SEQ ID NO. 131] (cyclo([4Pal][Trp(7-Cl)][αMeS][Phe(4-COOH)]Y[Sar][Trp(βS-Me,7-OMe)][X1][hLys][4Pal][Pip(5R-OH)]W[NMeE]N)), in that order: 0.06 nM, more than 1000 nM and 0.7 nM.
